Data as given in patent US20070203079A1, “Methods of using small molecule compounds for neuroprotection” (priority 2005, published 2007).
Where a name gives a salt, the structure may show the parent alone. Marks after values point to notes of the source that are not given here.

What was measured:
Type in all cases: in vivo, C. elegans
[1] = system: transgenic worm line Pdat-1::CAT-2; assay: Neurodegeneration by overexpression of cat-2 (tyrosine hydroxylase)
Source text: Overexpression of cat-2, the worm homologue for tyrosine hydroxylase, results in increased intraneuronal dopamine production and a characteristic loss of dopaminergic neurons in 75% of transgenic worms as compared to wild type (Cao et al., J Neurosci, 25(1):3801-3812). Co-expression of worm or human torsin proteins reduces the loss of dopaminergic neurons to a slight degree although neuronal degeneration is still present. The purpose of these experiments was to determine the effect of small molecule compounds in the Prestwick library in another different C. elegans model of neurodegeneration.
Worms were cultured using the same methods described above. A transgenic worm line expressing Pdat-1::CAT-2 expresses a phenotype that results in visible neurodegeneration at all developmental stages in an integrated line, in which only approximately 55% of 7 day old animals maintained all four CEP neurons. […] Compound 166 is an example of one such compound.
To further examine the neuroprotective effect of meclofenamic acid and lidocaine, we used a transgenic line (Pdat-1::CAT-2) we previously described (Cao et al., J Neurosci, 2005, 25(1): 3801-3812). Overexpression of cat-2, the C. elegans homolog of the tyrosine hydroxylase (“TH”) gene, causes a high level of DA production and as a result, DA neuron degeneration is observed (Cao et al., J Neurosci, 2005, 25(1): 3801-3812). […] We also tested whether meclofenamic acid was able to suppress CAT-2-induced neurodegeneration. […] Therefore, meclofenamic acid can protect DA neurons from degeneration produced by overexpression of the dopamine precursor, tyrosine hydroxylase.

[2] = system: transgenic worms containing the transgene Pdat-1::GFP without any torsinA expression; assay: 6-OHDA dopaminergic neurodegeneration in worms without torsinA; conditions: no torsinA expression
[3] = system: GFP::DAT-1; assay: Pdat-1::GFP::DAT-1 expression within DA neurons; conditions: for Neurons with cell body and dendritic/axonal GFP: water control 70%; for Neurons with cell body and dendritic/axonal GFP / Mean pixel intensity of cell bodies ± SEM (fluorescence intensity): HCl; for Mean pixel intensity of cell bodies ± SEM (fluorescence intensity): water control 1970 ± 80, compounds at 1.85, 1.49, 1.86 mM
[4] = system: protein misfolding and aggregation in transgenic worms; assay: Corrective assay of protein aggregation (drug from L2 stage onward); conditions: drug exposure from L2 stage onward; scored at L3 and young adult
Description: To see the corrective effect of the candidate drug compounds on protein misfolding and aggregation, five gravid adult worms were placed onto a solvent control plate and grown at 20° C. for approximately 3 days. 35-40 Fl worms at L2 stage were picked and transferred to a drug plate. Thirty worms at L3 stage were counted for aggregate number 8 hours later. Thirty young adults were analyzed 32 hours later.
(§1) To calculate the scaled effectiveness of special regimen of drugs on worms based on standardized decrease in protein aggregates. The following formula was used: (A−B)/(A−C)×100%, where
(§2) A=number of aggregates for worms growing on solvent control plates
(§3) B=number of aggregates for worms grown on the specific drug plate for the entire life of the worms
C=number of aggregates for worms that received exposure from L2 stage (until adulthood)
(§4) If the regimen has no effect, the value would equal 0%. Conversely, if the regimen was as effective as raising the worms on the drug for their entire life, the value would equal 100%.

[5] = system: Pdat-1::GFP+Pdat-1::α-synuclein+Pdat-1::torsinA worms; assay: α-synuclein toxicity assay, wt torsinA
Source text: (§5) We have previously shown that torsinA can prevent dopamine (“DA”) neuron degeneration resulting from overexpression of α-synuclein in the DA neurons of C. elegans, while torsinA (“ΔE”) has a reduced neuroprotection (Cao et al., J Neurosci, 2005, 25(1): 3801-3812). Specifically, only 26.1±5.3% of the worms expressing Pdat-1::GFP+Pdat-1::α-synuclein maintained all 4 wildtype CEP DA neurons as 4 day adults while the percentages of the worms expressing Pdat-1::GFP+Pdat-1::α-synuclein+Pdat-1::torsinA and Pdat-1::GFP+Pdat-1::α-synuclein+Pdat-1:: torsinA (ΔE) are 57.3±1.6% and 42.2±7.3%, respectively (Cao et al., J Neurosci, 2005, 25(1): 3801-3812) (FIG. 8).
(§6) All molecules are coded by Prestwick Library number. TorsinA-dependent compounds identified from the aggregation assay have torsinA-specific effects and, therefore, are likely to function in the same manner in the α-synuclein toxicity assay. All three α-synuclein transgenic lines were exposed to the five torsinA-dependent compounds to determine their torsinA-specificity (FIG. 9). As expected, none of these compounds had any effect in Pdat-1::GFP+Pdat-1::α-synuclein when torsinA expression is absent.

[6] = system: worms expressing Punc-54::Q82::GFP+Punc-54::torsinA (ΔE) with a mutant torsinA only; assay: Protein aggregate assay in worms with mutant torsinA only
Description: (§7) C elegans nematodes were grown at 20° C. on NGM plates as described by Brenner (Brenner, Genetics, 1974, 77: 71-94). Several transgenic C. elegans lines were used for primary screens of the Prestwick small molecule library. A transgenic worm line expressing Punc-54::Q82-GFP; with both wild type (“wt”) (Punc=54: :torsinA) or mutant (Punc-54::torsinA(ΔE)). Torsin-A expresses a phenotype that results in visible protein aggregation under fluorescent microscope. Transgenic worms were plated on drug plates and progeny were studied for a return to soluble protein. […]
(§8) The screening assays used to identify the compounds use protein aggregation readouts to determine the specificities of molecular action. […]
(§9) The methods for the aggregate analysis assay are described in Caldwell et al. (Hum Mol Genetics, 2003, 12(3): 307-319). […] MetaMorph Software (Universal Imaging Inc.) was used for pseudocoloration of images, image overlay, and aggregate size quantitation. For each worm line analyzed, average aggregate size was determined by capturing images of all aggregates in the posterior region of 30 L3-staged animals (for Q82::GFP aggregates) or all aggregates in 30 adult animals/day (for Q19::GFP analyses) at 1000× magnification. […]

[7] = system: Pdat-1::GFP+Pdat-1::α-synuclein+Pdat-1:: torsinA (ΔE) worms; assay: α-synuclein toxicity assay, mutant torsinA
Source text: as §5, §6

[8] = system: protein misfolding and aggregation in transgenic worms; assay: Preventative assay of protein aggregation (drug from hatching to L2 stage); conditions: exposure from hatching to L2 stage; scored at L3 and young adult
Description: To see the preventative effects of the candidate drug compounds on protein misfolding and aggregation, five gravid adult worms were placed onto each drug plate and grown at 20° C. for approximately 3 days. 35-40 Fl worms at L2 stage were picked and transferred to a control plate with the same concentration of control solvent compared to the drug plate. Thirty worms at L3 stage were counted for aggregate number 8 hours later. Thirty young adults were analyzed 32 hours later.
as §1, §2, §3
C=number of aggregates for worms that received pre-L2 exposure and were then removed to solvent control plates
as §4

[9] = system: transgenic worms containing the transgene Punc-54::Q82::GFP without any torsinA expression; assay: Protein aggregate assay in worms without torsinA expression
Description: as §7, §8, §9

[10] = system: worms containing Pdat-1::GFP+Pdat-1::torsinA+Pdat-1::torsinA (ΔE) after 6-OHDA exposure; assay: 6-OHDA dopaminergic neurodegeneration in worms with wt and mutant torsinA; conditions: wt and mutant torsinA co-expressed; 6-OHDA insult
Source text: Previous studies have established that the “CEP” and “ADE” mechanosensory neurons in C. elegans undergo readily discernable neuronal degeneration after treatment with the dopamine-selective neurotoxin 6-OHDA (Nass et al, 2002). The toxicity of 6-OHDA is mediated through the formation of reactive oxygen species by the generation of hydrogen peroxide and […] via a nonenzymatic auto-oxidation process (Kumar et al., 1995; Foley and Riederer, 2000). […] This degeneration can be monitored in living animals by coexpressing with green fluorescent protein and categorized into three temporally and morphologically distinct stages, including neuronal process blebbing, cell body rounding with process loss, and cell body loss. These characteristic changes reproducibly appear in this order within a few hours, recapitulating observations in MPTP-treated monkeys and in 6-OHDA-treated rats, in which damage to striatal terminals leads to retrograde changes and precedes that of SNpc cell bodies (Berger et al., 1991; Herkenham et al., 1991). The actions of torsin protein in 6-OHDA-mediated neurodegeneration has recently been shown (Cao et al., J Neurosci, 25(1):3801-3812). Animals were treated with various concentrations of 6-OHDA and neurodegeneration was followed over time, as worms develop and age, by co-expression of a dopamine GFP marker in these transparent animals.
C. elegans nematodes were grown at 25° C. on NGM plates as described by Brenner (Brenner, Genetics, 1974, 77: 71-94). Two transgenic C. elegans lines were used for primary screens of the Prestwick small molecule library. A transgenic worm line expressing Pdat-1::GFP; with both wild type (Pdat-1::torsinA) or mutant (Pdat-1:::torsinA(ΔE)). Torsin-A expresses a phenotype that results in visible neurodegeneration after treatment with 6-OHDA. Transgenic worms were plated on drug plates and progeny were studied for morphological changes in the 8 dopaminergic neurons present in C. elegans.
Drugs were administered to C. elegans according to a standard procedure (Rand and Johnson, Methods Cell Biol, 1995, 48: 187-204) by mixing the solubilized drug with the agar medium on which the worms are grown. This mode of administration allows the continuous exposure of worms to the drug.
Each drug was first dissolved in an appropriate solvent, followed by adding the drug solution into pre-autoclaved media, with the volume of drug solution already taken into account. All drugs were tested at 0.5 mg/ml initial concentration, a few of which were toxic to worms and then tested at 0.1 mg/ml or 0.025 mg/ml concentration. Each plate was seeded with 100 μl concentrated E. coli OP50 bacteria
Age-synchronized worms were obtained by treating gravid adults with 2% sodium hypochlorite and 0.5M NaOH to isolate embryos (Lewis Fleming, 1995). These embryos were grown for 30 h at 25° C. At the L3 stage, larvae were incubated with 10 mM (50 mM) 6-OHDA and 2 mM (or 10 mM) ascorbic acid for 1 h with gentle agitation every 10 minutes. (Nass et al., 2002). The worms were then washed and spread onto NGM plates seeded with bacteria (OP50) and scored at time points ranging from 2 to 72 h after 6-OHDA exposure.
Immediately after 6-OHDA treatment, worms containing the transgenes were selected under a fluorescence dissecting microscope, based on the presence of GFP, and transferred to a fresh NGM plate seeded with OP50. For each time point, 30-40 worms were applied to a 2% agarose pad and immobilized with 3 mM levamisole. Worms were examined under a Nikon Eclipse E800 epifluorescence microscope equipped with an Endow GFP filter cube (Chroma Technology, Rockingham, Vt.). For ease of analysis, only the four CEP DA neurons in the head of the worm were scored. […]

[11] = Pdat-1::GFP::DAT-1, listed as Lidocaine hydrochloride

**Q.** Which “neuroprotective effect against CAT-2-induced neurodegeneration” value ([1]; Pdat-1::CAT-2) does the source give for `CCN(CC)CC(=O)Nc1c(C)cccc1C` [Compound 50, lidocaine HCl] here?
**A.** −7.9%

**Q.** And the “reduction of 6-OHDA-mediated neurodegeneration” value [2]?
**A.** reduced the 6-OHDA-mediated neurodegeneration

**Q.** What about the “Worms with no GFP” value ([3]; Pdat-1::GFP::DAT-1, water control 0%) of the same molecule?
**A.** 0%

**Q.** What about the “Neurons with cell body GFP only” value ([3]; Pdat-1::GFP::DAT-1, water control 30%) of the same molecule?
**A.** 70%^e

**Q.** And the “Neurons with cell body and dendritic/axonal GFP” value ([3]; Pdat-1::GFP::DAT-1)?
**A.** 30%

**Q.** What about the “Neurons with cell body and dendritic/axonal GFP” value [3, 11] of the same molecule?
**A.** 30%^d

**Q.** What about the “Mean pixel intensity of cell bodies ± SEM (fluorescence intensity)” value ([3]; Pdat-1::GFP::DAT-1) of the same molecule?
**A.** 1612 A.U.

**Q.** What about the “Mean pixel intensity of cell bodies ± SEM (fluorescence intensity)” value [3, 11] of the same molecule?
**A.** 1612 ± 78 A.U.

**Q.** And the “effect on GFP::DAT-1 level” value ([3]; result in words)?
**A.** can down-regulate the level of DAT-1 protein directly

**Q.** Which “corrective effect on protein aggregation” value [4] does the source give for `CN(C)C(=O)C(CCN1CCC(O)(c2ccc(Cl)cc2)CC1)(c1ccccc1)c1ccccc1` [Compound 144, Loperamide HCl] here?
**A.** seem to be beneficial

**Q.** And the “enhanced wild type DA neuron survival” value [5]?
**A.** failed to show any significant neuroprotection

**Q.** What about the reduction of aggregation [6] of the same molecule?
**A.** reduced aggregation

**Q.** And the “enhanced DA neuron survival” value [7]?
**A.** 39.5±1.4%

**Q.** What about the “preventative effect on protein aggregation” value [8] of the same molecule?
**A.** seem to be beneficial

**Q.** For `NCc1ccc(S(N)(=O)=O)cc1` [Compound 166, Mafenide], which “reduction of protein aggregates” value [9] is on record?
**A.** reduced the presence of protein aggregates

**Q.** What about the “neuroprotective action on dopaminergic neurons overexpressing cat-2” value ([1]; Pdat-1::CAT-2, result in words) of the same molecule?
**A.** demonstrated a reduction in the standardized decrease in dopaminergic neurodegeneration

**Q.** And the “neuroprotection of dopaminergic neurons against 6-OHDA” value [10]?
**A.** little to no neuroprotection
